This is an account of results in ChEMBL document CHEMBL3769336, “Discovery of a Chemical Tool Inhibitor Targeting the Bromodomains of TRIM24 and BRPF” (J Med Chem, 2016).

As usually defined, the IC50 is the concentration needed to halve the response being measured. Low readings indicate greater potency in that assay, high ones weaker potency in that assay.

The source made the active and inactive calls. The rule behind the calls is not given here.

For test [1], the target named is T1, Peregrin (Homo sapiens, UniProt P55201).
T1 sequence (P55201 whole entry): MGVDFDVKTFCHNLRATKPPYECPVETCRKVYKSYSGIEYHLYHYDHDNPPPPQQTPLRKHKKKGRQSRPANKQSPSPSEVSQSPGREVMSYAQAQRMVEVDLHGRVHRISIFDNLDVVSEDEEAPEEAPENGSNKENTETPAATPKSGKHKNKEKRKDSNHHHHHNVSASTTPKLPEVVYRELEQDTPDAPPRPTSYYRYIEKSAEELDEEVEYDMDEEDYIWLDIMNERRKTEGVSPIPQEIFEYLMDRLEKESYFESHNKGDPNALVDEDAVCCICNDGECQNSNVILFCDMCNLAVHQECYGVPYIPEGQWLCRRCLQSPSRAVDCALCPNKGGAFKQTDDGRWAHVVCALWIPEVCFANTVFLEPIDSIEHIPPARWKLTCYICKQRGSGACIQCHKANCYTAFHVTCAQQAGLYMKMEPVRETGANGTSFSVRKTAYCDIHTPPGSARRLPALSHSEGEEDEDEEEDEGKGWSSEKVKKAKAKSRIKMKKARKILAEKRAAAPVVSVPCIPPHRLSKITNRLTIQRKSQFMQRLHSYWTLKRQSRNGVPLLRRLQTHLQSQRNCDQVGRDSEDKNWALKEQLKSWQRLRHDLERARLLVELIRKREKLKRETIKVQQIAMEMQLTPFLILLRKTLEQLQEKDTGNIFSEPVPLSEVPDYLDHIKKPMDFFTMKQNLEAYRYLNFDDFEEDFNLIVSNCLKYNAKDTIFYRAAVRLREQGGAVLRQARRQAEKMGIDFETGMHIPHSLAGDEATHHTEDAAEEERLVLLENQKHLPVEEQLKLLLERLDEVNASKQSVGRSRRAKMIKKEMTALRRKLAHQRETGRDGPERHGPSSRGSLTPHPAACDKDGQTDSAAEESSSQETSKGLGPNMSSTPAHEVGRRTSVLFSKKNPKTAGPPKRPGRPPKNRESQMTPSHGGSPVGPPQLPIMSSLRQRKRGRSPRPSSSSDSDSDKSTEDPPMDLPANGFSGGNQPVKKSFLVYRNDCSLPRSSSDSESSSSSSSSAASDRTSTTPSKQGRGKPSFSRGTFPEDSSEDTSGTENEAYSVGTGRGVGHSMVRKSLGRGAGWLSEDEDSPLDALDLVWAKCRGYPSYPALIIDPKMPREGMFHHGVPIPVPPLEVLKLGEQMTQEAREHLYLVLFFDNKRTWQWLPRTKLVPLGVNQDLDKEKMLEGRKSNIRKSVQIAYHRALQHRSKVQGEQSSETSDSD
The experiment in a line: Inhibition of BRPF1B (unknown origin) by Alpha Screen assay. A general note: Bead proximity is the source of the signal in Alpha formats.

The test system of test [2] is RKO. The experiment in a line: Cytotoxicity against human RKO cells at 5x10'-5 M to 8x10'-8 M after 72 hrs by CellTiter-Glo assay. In kind it is functional, cell-based. (Cellular ATP, detected with luciferase, serves as a proxy for viable cell number.)
For test [3], the target named is T2, Bromodomain and PHD finger-containing protein 3 (Homo sapiens, UniProt Q9ULD4).
T2 sequence (Q9ULD4 whole entry): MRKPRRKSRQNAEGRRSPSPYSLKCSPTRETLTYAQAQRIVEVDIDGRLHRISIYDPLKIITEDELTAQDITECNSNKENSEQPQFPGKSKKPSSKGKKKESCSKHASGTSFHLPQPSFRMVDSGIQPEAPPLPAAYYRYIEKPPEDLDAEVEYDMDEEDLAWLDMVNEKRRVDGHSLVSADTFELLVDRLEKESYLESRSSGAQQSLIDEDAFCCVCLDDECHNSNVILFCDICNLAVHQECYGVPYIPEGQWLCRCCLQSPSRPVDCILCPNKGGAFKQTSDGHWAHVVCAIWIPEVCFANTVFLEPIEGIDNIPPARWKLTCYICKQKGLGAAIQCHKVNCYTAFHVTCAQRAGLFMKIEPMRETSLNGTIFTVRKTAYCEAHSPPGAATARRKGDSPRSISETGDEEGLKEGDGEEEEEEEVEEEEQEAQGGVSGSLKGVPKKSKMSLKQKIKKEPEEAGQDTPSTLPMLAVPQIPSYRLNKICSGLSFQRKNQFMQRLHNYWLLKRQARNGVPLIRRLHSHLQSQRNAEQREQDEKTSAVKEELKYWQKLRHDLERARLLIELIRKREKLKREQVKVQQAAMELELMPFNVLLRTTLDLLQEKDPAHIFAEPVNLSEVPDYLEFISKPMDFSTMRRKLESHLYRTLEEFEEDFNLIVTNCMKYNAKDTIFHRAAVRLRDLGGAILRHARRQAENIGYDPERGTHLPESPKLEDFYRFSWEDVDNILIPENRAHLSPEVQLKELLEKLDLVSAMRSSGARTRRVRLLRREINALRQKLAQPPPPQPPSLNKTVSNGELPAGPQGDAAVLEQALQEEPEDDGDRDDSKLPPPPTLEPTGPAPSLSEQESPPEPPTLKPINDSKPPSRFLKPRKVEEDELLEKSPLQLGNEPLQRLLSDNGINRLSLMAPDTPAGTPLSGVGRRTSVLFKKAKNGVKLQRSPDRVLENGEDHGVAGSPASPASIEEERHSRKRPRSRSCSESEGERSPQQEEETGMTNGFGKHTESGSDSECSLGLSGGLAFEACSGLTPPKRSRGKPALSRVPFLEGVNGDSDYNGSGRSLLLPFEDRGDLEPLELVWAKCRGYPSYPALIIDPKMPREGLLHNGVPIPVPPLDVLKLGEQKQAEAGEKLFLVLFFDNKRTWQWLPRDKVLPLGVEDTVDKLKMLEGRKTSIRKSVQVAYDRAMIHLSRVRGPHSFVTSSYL
The experiment in a line: Inhibition of BRPF3 (unknown origin) by Alpha Screen assay.

In the case of `COc1ccc(Oc2cc3c(cc2NS(=O)(=O)c2ccc(OC)c(OC)c2)n(C)c(=O)n3C)cc1`, the values for the 50% inhibitory concentration (IC50) in test [1] and in test [3] were 0.34 µM and 7 µM, respectively. In test [2], the result was inactive.
